Data set [1] relates to Auricle. The data set can be described thus: antiarrhythmic activity, electrical fibrillation threshold of auricle, anaesthetized cats. The format is in vivo. The conditions noted are these: relative to quinidine = 1.00, from ED50 mg/kg, i.v., fibrillation threshold method. On the procedure: (§1) The animals were anaesthetized with chloralose-urethane [50/30 mg/kg, i.v.]. The minimal strength of the current necessary to evoke the ventricular and auricular fibrillo-flutter, respectively, was followed by the method of Szekeres and al. [Szekeres, Mehes and Papp: Brit. J. Pharmacol. 17, 167 (1961); Szekeres and Papp: Experimental Cardiac Arrhythmias and Antiarrhythmic Drugs, Akademiai Kiado, Budapest, 1971; Szekeres and Papp: Experimental Cardiac Arrhythmias, Hdb. Exp. Pharmacol. XVI/3, 131, (1975).
(§2) The therapeutic indices related to the antiarrhythmic activity were calculated on the basis of the LD50 /ED50 ratio, where LD50 is the doses resulting in the death of the 50% of the animals (rats), and ED50 is the dosis provoking a 50% rise in the electrical threshold for fibrillation on rats. The LD50 values were determined on male Wistar rats weighing 180 to 220 g by the method of Litchfield and Wilcoxon [J. Pharmacol. Exp. Ther. 95, 49 (1949)].
(§3) ^+ Relative activity calculated from the antiarrhythmic activity
(§4) [ED50 mg/kg, i.v.] determined on cats by the fibrillation threshold

Data set [2] has as its system Ventricle. The data set can be described thus: antiarrhythmic activity, electrical fibrillation threshold of ventricle, anaesthetized cats. It is filed as in vivo. The conditions noted are these: relative to quinidine = 1.00, from ED50 mg/kg, i.v., fibrillation threshold method. How it is done:
as §1, §2, §3, §4

A short description of data set [3]: therapeutic index LD50:ED50 related to antiarrhythmic activity on auricle. It is filed as in vivo, LD50: male Wistar rats; ED50: cats (b90) / rats (b59). The conditions noted are these: rat, in vivo, iv, ED50 i.v. How it is done: as §1, §2
(§5) The i.v. and p.os LD50 values were determined on rats.

Data set [4] can be described thus: therapeutic index LD50:ED50 related to antiarrhythmic activity on ventricle. The format is in vivo, LD50: male Wistar rats; ED50: cats (b90) / rats (b59). Particulars: rat, in vivo, iv; LD50 p.os rats; ED50 i.v. How it is done:
as §1, §2, §5

The test system of data set [5] is Ventricle. The description is as above. It is filed as in vivo, LD50: male Wistar rats; ED50: cats (b90) / rats (b59). The conditions noted are these: for Ventricle: Therapeutic index LD50:ED50 /i.v.//i.v./: LD50 i.v. rats. On the procedure:
as §1, §2, §5

Data set [6] concerns right auricle. As to the kind of experiment: heartelectrophysiological test on isolated rabbit heart preparation, right auricle. The conditions noted are these: Oryctolagus cuniculus, percentage of the original values, read-out: Spontaneous frequency /right auricle/; for inhibition at 0.2 µg/mL: 0.2 mg/l.
Data set [7] deals with left auricle. As to the kind of experiment: heartelectrophysiological test on isolated rabbit heart preparation, left auricle. The conditions noted are these: Oryctolagus cuniculus, percentage of the original values; for activation at 0.2 µg/mL: 0.2 mg/l; for activation at 0.5 µg/mL: 0.5 mg/l; for activation at 5 µg/mL: 5 mg/l.
Data set [8] concerns papillary muscle. As to the kind of experiment: heartelectrophysiological test on isolated rabbit heart preparation, papillary muscle. Particulars: Oryctolagus cuniculus, percentage of the original values; for activation at 0.2 µg/mL: 0.2 mg/l; for activation at 0.5 µg/mL: 0.5 mg/l; for activation at 5 µg/mL: 5 mg/l.
Data set [9] relates to isolated rabbit heart preparation. The data set can be described thus: heartelectrophysiological methods on an isolated rabbit heart preparation (summary). The source says:
The compounds of Examples 5, 6 and 7, tested by heartelectrophysiological methods on an isolated rabbit heart preparation decrease the spontaneous frequency of right ventricle, increase the electric stimulus threshold, prolong the effective refractory period and also the time of stimulus conduction. The data referring hereto are given in Table II, in the percentage of the original values.

Data set [10] relates to dogs. As to the kind of experiment: haemodynamics in dogs anaesthetized with nembutal. The format is in vivo. The conditions noted are these: nembutal anaesthesia, 0.5 to 2 mg/kg i.v. How it is done:
On dogs anaesthetized with nembutal (35 mg/kg, i.v.) in an i.v. dosis of 0.5 to 2 mg/kg the compounds slightly decrease the arterial blood pressure. The compounds of Examples 5 and 6 decrease the coronary resistance, improve the oxygenization of the heart muscle, increase the blood flow of the artery femoralis, and the compound of Example 5 increases also the blood flow of arteria carotis.

The subject of data set [11] is Auricle. As to the kind of experiment: therapeutic index LD50:ED50 related to antiarrhythmic activity on auricle. The format is in vivo, LD50: male Wistar rats; ED50: cats (b90) / rats (b59). On the procedure: as §1, §2, §5
In data set [12] the test system is nervus ischiadicus of frog. The data set can be described thus: local anaesthetic effect on action potential of nervus ischiadicus of frog.
The subject of data set [13] is cardiac rhythm disturbances. Particulars: cited from earlier work.
Where [14] appears, read: LD50 i.v. rats, read-out: Auricle: Therapeutic index LD50:ED50 /i.v.//i.v./.
[15] abbreviates: LD50 p.os rats, read-out: Auricle: Therapeutic index LD50:ED50 /p.os//i.v./.
The mark [16] stands for this setting: read-out: Effective refractory period /left auricle/.
[17] abbreviates: read-out: Electrical threshold /left auricle/.
Setting [18] is: read-out: Time of the stimulus-conduction /left auricle/.
[19] abbreviates: read-out: Effective refractory period /papillary muscle/.
The mark [20] stands for this setting: read-out: Electrical threshold /papillary muscle/.
Where [21] appears, read: ventricle (from Table I), versus quinidine.

Molecules are shown by their SMILES. Like-named read-outs stand apart in the source and are kept apart here.

Consider 4 molecules from US4530923A, “N-acetamilide, N-(phenoxy-2-propanol)- and N-(phenylamino-2-propanol)-cyclicamines” (Egyt Gyogyszervegyeszeti Gyar, priority 1981, dated 1985).

As to `Cc1cccc(C)c1OCC(O)CN1CCCCCC1` (stereo not shown) [Example 5, 1-(2,6-dimethylphenoxy)-3-hexamethyleneimino-propanol-2], the “Auricle: Relative activity” value in [1] came out at 7.14. For the same molecule, in [2], the “Ventricle: Relative activity” value was determined as 8.04. The selectivity ratio in data set [3] (setting [14]) was 13.3; in data set [3] (setting [15]), 189; in [4], 110. The “Ventricle: Therapeutic index LD50:ED50 /i.v.//i.v./” value in data set [5] came out at 7.7. In [6], the inhibition at 0.2 µg/mL worked out at 4 ± 2%. Further, the activation at 0.2 µg/mL is 10% in data set [7] (setting [16]); 24% in [7] (setting [17]); 38% in data set [7] (setting [18]); 9% in data set [8] (setting [19]); 46% in data set [8] (setting [20]). Also, the “effective refractory period (in words)” value in data set [9] is on record as “prolong”. Besides, the “electric stimulus threshold (in words)” value in [9] is reported as “increase”. Moreover, in data set [9], the “spontaneous frequency of right ventricle (in words)” value (“spontaneous frequency” for short) was “decrease”. Further, the “time of stimulus conduction (in words)” value in data set [9] was “prolong”. Also, in data set [10], the “blood flow of arteria carotis” value was “increases”. In addition, the “blood flow of the artery femoralis” value in data set [10] is “increase”. Further, the coronary resistance result in data set [10] is given as “decrease”. The “oxygenization of the heart muscle” value in [10] was “improve”.

In the case of `Cc1cccc(C)c1OCC(O)CN1CCCCCCC1` (stereo not shown) [Example 6, 1-(2,6-dimethylphenoxy)-3-heptamethyleneimino-propanol-2], the “Auricle: Relative activity” value in [1] came to 12.50. The “Ventricle: Relative activity” value in data set [2] amounted to 2.80. For the same molecule, the selectivity ratio is 23.9 in [3] (setting [14]), 1960 in [3] (setting [15]) and 229 in data set [4]. Besides, the “therapeutic index related to the supraventricular activity (in words)” value in data set [11] (among the tested compounds) is listed as “most preferable therapeutic index”. Also, the “therapeutic index related to supraventricular activity (i.v. toxicity), times higher than that of quinidine” value in [11] (i.v. LD50 / i.v. ED50, versus quinidine) is listed as “about 1.8 times”. For the same molecule, the “therapeutic index related to supraventricular activity (per os toxicity), times higher than that of quinidine” value in data set [11] (per os LD50 / i.v. ED50, versus quinidine) is about 7 times. Moreover, the “Ventricle: Therapeutic index LD50:ED50 /i.v.//i.v./” value in data set [5] was determined as 2.8. In addition, the “quotient per os LD50 / i.v. ED50, times higher than that of quinidine” value in data set [5] (setting [21]) is “about 1.6 times”. Moreover, the inhibition at 0.2 µg/mL in data set [6] was determined as 7 ± 1%. For the same molecule, the activation at 0.2 µg/mL in data set [7] (setting [16]) was 3%; in data set [7] (setting [17]) it was 19%; in [7] (setting [18]) it was 15%; in [8] (setting [19]), 4%; in data set [8] (setting [20]), 9%. Further, in data set [9], the “effective refractory period (in words)” value was “prolong”. Besides, the “electric stimulus threshold (in words)” value in data set [9] is “increase”. Further, the “spontaneous frequency” value in data set [9] is listed as “decrease”. Moreover, the “time of stimulus conduction (in words)” value in data set [9] is “prolong”. In data set [10], the “blood flow of the artery femoralis” value is recorded as “increase”. The coronary resistance result in data set [10] is reported as “decrease”. The “oxygenization of the heart muscle” value in data set [10] was “improve”. Besides, the “local anaesthetic effect (in words)” value in data set [12] is “strong local anaesthetic effect”. Moreover, the “local anaesthetic effect, times stronger than that of lidocaine” value in data set [12] (versus lidocaine) is given as 2.7 times.

On to `Cc1cccc(C)c1NCC(O)CN1CCCCCC1` (stereo not shown) [Example 7, 1-hexamethyleneimino-3-(2,6-dimethylanilino)propanol-2], for which the “Auricle: Relative activity” value in [1] is 8.54. The “Ventricle: Relative activity” value in data set [2] worked out at 7.85. Moreover, the selectivity ratio in [3] (setting [14]) was found to be 20.7; in data set [3] (setting [15]), 439; in data set [4], 209. Moreover, the “Ventricle: Therapeutic index LD50:ED50 /i.v.//i.v./” value in data set [5] came to 9.9. Besides, in data set [5] (setting [21]), the “quotient i.v. LD50 / i.v. ED50, times higher than that of quinidine” value is “about 1.4 times”. Moreover, in data set [6] (0.5 mg/l), the inhibition at 0.5 µg/mL was found to be 9 ± 1%. Further, the activation at 0.5 µg/mL in data set [7] (setting [16]) was determined as 11%; in [7] (setting [17]), 25%; in data set [7] (setting [18]), 28%; in data set [8] (setting [19]), 10%; in data set [8] (setting [20]), 29%. The “effective refractory period (in words)” value in data set [9] is recorded as “prolong”. In [9], the “electric stimulus threshold (in words)” value is recorded as “increase”. Further, in data set [9], the “spontaneous frequency” value was “decrease”. Also, the “time of stimulus conduction (in words)” value in data set [9] was “prolong”.

Take `C=C[C@H]1C[N@@]2CC[C@H]1C[C@@H]2[C@@H](O)c1ccnc2ccc(OC)cc12` [Quinidine, reference compound]: in [1], the “Auricle: Relative activity” value is listed as 1.00. In addition, in data set [2], the “Ventricle: Relative activity” value stood at 1.00. In addition, the figures for the selectivity ratio in data set [3] (setting [14]), in [3] (setting [15]) and in [4] were 13.4, 280 and 145, respectively. The “Ventricle: Therapeutic index LD50:ED50 /i.v.//i.v./” value in data set [5] came out at 6.9. Further, in data set [6] (5 mg/l), the inhibition at 5 µg/mL is 12 ± 1%. Moreover, the activation at 5 µg/mL in data set [7] (setting [16]) was 32%; in data set [7] (setting [17]), 120%; in data set [7] (setting [18]), 90%; in data set [8] (setting [19]), 55%; in [8] (setting [20]), 56%. The “effectiveness in cardiac rhythm disturbances” value in [13] (Br. Heart J. 38, 381 (1976)) was “effective primarily in the treatment of arrhythmia, auricular flutter, fibrillation and paroxysmal tachycardia”. The toxic side-effects result in [13] (background literature) was “induce subjective hyperaesthesia, create vision problems, headache and nausea, and give rise to grave asthmatic symptoms”.
